# Reference: patent US20180015100A1, “COMBINATION PRODUCTS FOR THE TREATMENT OF BACTERIAL INFECTIONS AND METHODS OF PRODUCING OR DOSING OF SAME” (priority 2016, published 2018)
# Experiments:
# [1] = tested on: 385 Escherichia coli and 126 Klebsiella pneumoniae isolates; assay: MIC, MIC50 and MIC90 by reference broth microdilution against 511 UTI/bloodstream isolates (USA and Europe 2014-2015); type: cell-based
# E. coli (ATCC 25922) = assay: One-compartment in vitro chemostat infection model, ceftibuten alone; type: cell-based
# Procedure: Becton, Dickinson and Company, Sparks, Md.) and placed in a water bath at 35° C. Magnetic stirrers were used for consistent mixing of the contents during the experiment. […] For each drug exposure/bacteria combination, the experiment was conducted over 24 hours and consisted of a drug free control and two experimental (i.e., drug containing) replicate models. Data from the two replicate models were treated as independent exposures given there is some expected variability in obtained concentrations due to small inconsistencies in volume flows between the chemostat models. A peristaltic pump (Masterflex L/S model 7524-40; Cole-Parmer, Vernon Hills, Ill.) was set to infuse CAMHB into the models at a desired elimination rate for the drug. Broth samples were collected from the model throughout the experiment to determine free drug concentrations and bacterial density. Antibiotic carryover was minimized by serial dilution of samples. Bacterial density was counted after 18-24 hours incubation at 37° C. […] Time-kill curves were constructed by plotting the log10 CFU/mL against time. […] The control models served to define 0% fT>MIC results. […] Drug concentrations were assessed at the peak and trough of each administered dose to achieve the desired exposure and at least one other midpoint concentration for each interval. […] The change in log10 CFU/ml at 24 hours was the primary endpoint for exposure response relationship. […] Mountain View, Calif.).
# [2] = tested on: Yersinia pestis Colorado92; assay: microbe, parasite or virus in culture; type: cell-based
# [3] = tested on: Enterobacter aerogenes isolates; assay: MIC of cephalosporins alone or with clavulanate/tazobactam; type: cell-based; settings: Klebsiella aerogenes, clavulanate 2:1, tazobactam 4 μg/mL
# [4] = In vivo drug-drug interaction, plasma pharmacokinetics after oral bolus; settings: rat, oral 34.5 mg/kg ceftibuten ± 10.8 mg/kg clavulanate
# [5] = tested on: beta-lactamase producing K. pneumoniae; assay: In vitro chemostat model, clavulanate exposures with fixed ceftibuten exposure; type: cell-based
smiles,measurement,setting,value
"Nc1nc(/C(=C/CC(=O)O)C(=O)N[C@@H]2C(=O)N3C(C(=O)O)=CCS[C@H]23)cs1 [Ceftibuten, ceftibuten]",cumulative % of isolates at MIC,"[1]; MIC 1 μg/mL, All CTX-M-producing K pneumoniae (71)",(9.9) %
same,cumulative % of isolates at MIC,"[1]; MIC 1 μg/mL, All CTX-M-producing isolates (365)",(19.7) %
same,cumulative % of isolates at MIC,"[1]; MIC 1 μg/mL, E. coli (385)",(19.7) %
same,cumulative % of isolates at MIC,"[1]; MIC 1 μg/mL, Isolates producing CTX-M Group 1 (276)",(9.1) %
same,cumulative % of isolates at MIC,"[1]; MIC 1 μg/mL, Isolates producing CTX-M Group 9 (92)",(50.0) %
same,cumulative % of isolates at MIC,"[1]; MIC 1 μg/mL, Isolates producing SHV ESBL (18)",(55.6) %
same,cumulative % of isolates at MIC,"[1]; MIC 1 μg/mL, K pneumoniae (126)",(15.1) %
same,cumulative % of isolates at MIC,"[1]; MIC 2 μg/mL, All CTX-M-producing E. coli (294)",(34.4) %
same,cumulative % of isolates at MIC,"[1]; MIC 2 μg/mL, All CTX-M-producing K pneumoniae (71)",(15.5) %
same,cumulative % of isolates at MIC,"[1]; MIC 2 μg/mL, All CTX-M-producing isolates (365)",(30.7) %
same,cumulative % of isolates at MIC,"[1]; MIC 2 μg/mL, E. coli (385)",(30.4) %
same,cumulative % of isolates at MIC,"[1]; MIC 2 μg/mL, Isolates producing CTX-M Group 1 (276)",(15.2) %
same,cumulative % of isolates at MIC,"[1]; MIC 2 μg/mL, Isolates producing CTX-M Group 9 (92)",(76.1) %
same,cumulative % of isolates at MIC,"[1]; MIC 2 μg/mL, Isolates producing SHV ESBL (18)",(61.1) %
same,cumulative % of isolates at MIC,"[1]; MIC 2 μg/mL, K pneumoniae (126)",(19.0) %
same,cumulative % of isolates at MIC,"[1]; MIC 4 μg/mL, All CTX-M-producing E. coli (294)",(45.6) %
same,cumulative % of isolates at MIC,"[1]; MIC 4 μg/mL, All CTX-M-producing K pneumoniae (71)",(32.4) %
same,cumulative % of isolates at MIC,"[1]; MIC 4 μg/mL, All CTX-M-producing isolates (365)",(43.0) %
same,cumulative % of isolates at MIC,"[1]; MIC 4 μg/mL, E. coli (385)",(40.0) %
same,cumulative % of isolates at MIC,"[1]; MIC 4 μg/mL, Isolates producing CTX-M Group 1 (276)",(28.3) %
same,cumulative % of isolates at MIC,"[1]; MIC 4 μg/mL, Isolates producing CTX-M Group 9 (92)",(87.0) %
same,cumulative % of isolates at MIC,"[1]; MIC 4 μg/mL, Isolates producing SHV ESBL (18)",(66.7) %
same,cumulative % of isolates at MIC,"[1]; MIC 4 μg/mL, K pneumoniae (126)",(31.7) %
same,cumulative % of isolates at MIC,"[1]; MIC 8 μg/mL, All CTX-M-producing E. coli (294)",(66.3) %
same,cumulative % of isolates at MIC,"[1]; MIC 8 μg/mL, All CTX-M-producing K pneumoniae (71)",(56.3) %
same,cumulative % of isolates at MIC,"[1]; MIC 8 μg/mL, All CTX-M-producing isolates (365)",(64.4) %
same,cumulative % of isolates at MIC,"[1]; MIC 8 μg/mL, E. coli (385)",(56.9) %
same,cumulative % of isolates at MIC,"[1]; MIC 8 μg/mL, Isolates producing CTX-M Group 1 (276)",(55.8) %
same,cumulative % of isolates at MIC,"[1]; MIC 8 μg/mL, Isolates producing CTX-M Group 9 (92)",(89.1) %
same,cumulative % of isolates at MIC,"[1]; MIC 8 μg/mL, Isolates producing SHV ESBL (18)",(72.2) %
same,cumulative % of isolates at MIC,"[1]; MIC 8 μg/mL, K pneumoniae (126)",(53.2) %
same,cumulative % of isolates at MIC,"[1]; MIC 16 μg/mL, All CTX-M-producing E. coli (294)",(83.0) %
same,cumulative % of isolates at MIC,"[1]; MIC 16 μg/mL, All CTX-M-producing K pneumoniae (71)",(73.2) %
same,cumulative % of isolates at MIC,"[1]; MIC 16 μg/mL, All CTX-M-producing isolates (365)",(81.1) %
same,cumulative % of isolates at MIC,"[1]; MIC 16 μg/mL, E. coli (385)",(73.0) %
same,cumulative % of isolates at MIC,"[1]; MIC 16 μg/mL, Isolates producing CTX-M Group 1 (276)",(76.8) %
same,cumulative % of isolates at MIC,"[1]; MIC 16 μg/mL, Isolates producing CTX-M Group 9 (92)",(92.4) %
same,cumulative % of isolates at MIC,"[1]; MIC 16 μg/mL, Isolates producing SHV ESBL (18)",(94.4) %
same,cumulative % of isolates at MIC,"[1]; MIC 16 μg/mL, K pneumoniae (126)",(69.0) %
same,cumulative % of isolates at MIC,"[1]; MIC >[…] μg/mL, All CTX-M-producing E. coli (294)",(100.0) %
same,cumulative % of isolates at MIC,"[1]; MIC >[…] μg/mL, All CTX-M-producing K pneumoniae (71)",(100.0) %
same,cumulative % of isolates at MIC,"[1]; MIC >[…] μg/mL, All CTX-M-producing isolates (365)",(100.0) %
same,cumulative % of isolates at MIC,"[1]; MIC >[…] μg/mL, E. coli (385)",(100.0) %
same,cumulative % of isolates at MIC,"[1]; MIC >[…] μg/mL, Isolates producing CTX-M Group 1 (276)",(100.0) %
same,cumulative % of isolates at MIC,"[1]; MIC >[…] μg/mL, Isolates producing CTX-M Group 9 (92)",(100.0) %
same,cumulative % of isolates at MIC,"[1]; MIC >[…] μg/mL, Isolates producing SHV ESBL (18)",(100.0) %
same,cumulative % of isolates at MIC,"[1]; MIC >[…] μg/mL, K pneumoniae (126)",(100.0) %
same,cumulative % of isolates at MIC,"[1]; MIC […] μg/mL, All CTX-M-producing E. coli (294)",(91.8) %
same,cumulative % of isolates at MIC,"[1]; MIC […] μg/mL, All CTX-M-producing K pneumoniae (71)",(83.1) %
same,cumulative % of isolates at MIC,"[1]; MIC […] μg/mL, All CTX-M-producing isolates (365)",(90.1) %
same,cumulative % of isolates at MIC,"[1]; MIC […] μg/mL, E. coli (385)",(82.1) %
same,cumulative % of isolates at MIC,"[1]; MIC […] μg/mL, Isolates producing CTX-M Group 1 (276)",(87.7) %
same,cumulative % of isolates at MIC,"[1]; MIC […] μg/mL, Isolates producing CTX-M Group 9 (92)",(95.7) %
same,cumulative % of isolates at MIC,"[1]; MIC […] μg/mL, Isolates producing SHV ESBL (18)",(94.4) %
same,cumulative % of isolates at MIC,"[1]; MIC […] μg/mL, K pneumoniae (126)",(79.4) %
same,cumulative % of isolates at MIC,"[1]; MIC […], Enterobacteriaceae (511)",(5.1) %
same,fT > MIC for 1-log CPU reduction,"E. coli (ATCC 25922); 24 hours, Emax model",58.5%
same,fT > MIC for 2-log CPU reduction,"E. coli (ATCC 25922); 24 hours, Emax model",66.0%
same,fT > MIC for Stasis,"E. coli (ATCC 25922); 24 hours, Emax model",53.7%
same,MIC,"E. coli (ATCC 25922); Escherichia coli, ATCC25922",0.25 µg/mL
same,MIC,[2],0.03 µg/mL
same,MIC,[3]; AEAE1027 (CTX-M-14),1 µg/mL
same,MIC,[3]; AEAE1029 (CTX-M-15),8 µg/mL
same,effect of the combination on plasma concentration of ceftibuten vs ceftibuten alone,[4],did not markedly alter
same,MIC,"[5]; K. pneumoniae CTX-M-14, SHV-12",16 µg/mL
same,MIC,"[5]; K. pneumoniae CTX-M-15, SHV-12",> 64 µg/mL
